Laboratory results published in patent publication US10538535B2, “Antitumoral compounds” (priority 2017, dated 2020).
Read-outs that look alike come from different tables or passages of the source.

How the values were obtained:
[1] = test system: H82 tumors; assay: In vivo xenograft, human lung (SCLC) H82; conditions: iv weekly, 47-R 0.1 mg/Kg, Compound D 0.5 mg/Kg
Protocol: Female athymic nu/nu mice (Harlan Laboratories Models, S. L. Barcelona, Spain or Envigo, Spain) were utilized for all experiments. Animal were housed in individually ventilated cages Sealsafe® Plus, Techniplast S.P.A.), up to ten per cage on a 12-hour light-dark cycle at 21-23° C. and 40-60% humidity. Mice were allowed free access to irradiated standard rodent diet (Tecklad 2914C) and sterilized water. Animals were acclimated for at least 5 days prior to tumor implantation with a tumor cell suspension.
H82 cells were grown as a suspension and maintained by addition of fresh medium, as the cell density increases, every 2 to 3 days. Every week, culture was reestablished by centrifugation of the suspension with subsequent resuspension in fresh medium at a concentration of 1×10^5 cell/ml. Animals were subcutaneously implanted (on the right flank using 26 G needle and a 1 cc syringe) at 4-6 weeks of age with 5×10^6 H82 cells, suspended in 0.05 mL of a solution consisting of 50% Matrigel® (Corning Incorporated Life Sciences) and 50% medium without serum or antibiotics.
Treatment tolerability was assessed by monitoring body weight evolution, clinical signs of systemic toxicity, as well as evidences of local damage in the injection site.
In xenograft studies with other cell lines: • Tumor volume was calculated using the equation (a·b^2)/2, where a: length (longest diameter) and b: width (shortest diameter) were measured in mm by using digital caliper (Fowler Sylvac, S235PAT).
Treatments producing >20% lethality and/or 20% net body weight loss were considered toxic.
Tables and figures summarize the data obtained from complete experimental groups, i.e. those groups keeping the initial number of animals, n=8-10.

[2] = test system: H526 tumors; assay: In vivo xenograft, human lung (SCLC) H526; conditions: iv weekly, 47-R 0.1 mg/Kg, Compound D 0.5 mg/Kg
[3] = test system: HT29 cells; assay: cells; conditions: Homo sapiens, HT-29, 72 h; for CC50: read-out: LC50; for IC (TGI): read-out: TGI
Excerpt: (§1) The aim of this assay is to evaluate the in vitro cytostatic (ability to delay or arrest tumor cell growth) or cytotoxic (ability to kill tumor cells) activity of the samples being tested.
(§2) A colorimetric assay, using sulforhodamine B (SRB) reaction has been adapted to provide a quantitative measurement of cell growth and viability (following the technique described by Skehan et al. J. Natl. Cancer Inst. 1990, 82, 1107-1112). Another colorimetric assay based on 3-(4,5-Dimethylthiazol-2-yl)-2,5-diphenyltetrazolium bromide (MTT) reduction to a purple formazan has been also used to assess the antiproliferative activity (following the technique described by Mosmann et al. J. Immunol. Meth. 1983, 65, 55-63).
(§3) These forms of assays employ 96-well cell culture microplates following the standards of the American National Standards Institute and the Society for Laboratory Automation and Screening (ANSI SLAS 1-2004 (R2012) Oct. 12, 2011. All the cell lines used in this study were obtained from the American Type Culture Collection (ATCC) and derive from different types of human cancer.
(§4) A549, HT29, MDA-MB-231 and PSN1 cells were maintained in Dulbecco's Modified Eagle Medium (DMEM) while PC-3 and 22Rv1 cells were maintained in Roswell Park Memorial Institute Medium (RPMI). All cell lines were supplemented with 10% Fetal Bovine Serum (FBS), 2 mM L-glutamine, 100 U/mL penicillin, and 100 […] at 37° C., 5% CO2 and 98% humidity. For the experiments, cells were harvested from subconfluent cultures using trypsinization and resuspended in fresh medium before counting and plating.
(§5) A549, HT29, MDA-MB-231 and PSN1 cells were seeded in 96 well microtiter plates, at 5000 cells per well in aliquots of 150 μL, and allowed to attach to the plate surface for 18 hours (overnight) in drug free medium. After that, one control (untreated) plate of each cell line was fixed (as described below) and used for time zero reference value. Culture plates were then treated with test compounds (50 μL aliquots of 4× stock solutions in complete culture medium plus 4% DMSO) using ten 2/5 serial dilutions (concentrations ranging from 10 to 0.003 μg/mL) and triplicate cultures (1% final concentration in DMSO). After 72 hours treatment, the antitumor effect was measured by using the SRB methodology: Briefly, cells were washed twice with PBS, fixed for 15 min in 1% glutaraldehyde solution at room temperature, rinsed twice in PBS, and stained in 0.4% SRB solution for 30 min at room temperature. Cells were then rinsed several times with 1% acetic acid solution and air-dried at room temperature.
(§6) Effects on cell growth and survival were estimated by applying the NCI algorithm (Boyd M R and Paull K D. Drug Dev. Res. 1995, 34, 91-104). The values obtained in triplicate cultures were fitted by nonlinear regression to a four-parameters logistic curve by nonlinear regression analysis.

[4] = test system: MDA-MB-231 cells; assay: cells; conditions: Homo sapiens, MDA-MB-231, 72 h; for CC50: read-out: LC50; for IC (TGI): read-out: TGI
Excerpt: as §1, §2, §3, §4, §5, §6

[5] = test system: PSN1 cells; assay: cells; conditions: Homo sapiens, PSN1, 72 h; for CC50: read-out: LC50; for IC (TGI): read-out: TGI
Excerpt: as §1, §2, §3, §4, §5, §6

[6] = test system: PC-3 tumors; conditions: 12-R 0.05 mg/kg
Excerpt: In this model, instead of male, female animals were used because PC-3 growth is not hormone dependant.

[7] = test system: A549 cells; assay: cells; conditions: Homo sapiens, A549, 72 h; for CC50: read-out: LC50; for IC (TGI): read-out: TGI
Excerpt: as §1, §2, §3, §4, §5, §6

COc1c(C)cc2c(c1O)[C@@H]1[C@@H]3[C@@H]4SC[C@]5(N[C@@H](CN)Cc6c5oc5ccccc65)C(=O)OC[C@@H](c5c6c(c(C)c(OC(C)=O)c54)OCO6)N3[C@@H](O)[C@H](C2)N1C [Compound 47-R]
Median Tumor Volume ([1]; Table 57, Day 0): 169.0 mm^3
Median Tumor Volume ([1]; Table 57, Day 2): 371.6 mm^3
Median Tumor Volume ([1]; Table 57, Day 5): 888.8 mm^3
Median Tumor Volume ([1]; Table 57, Day 7): 1314.2 mm^3
Median Tumor Volume ([1]; Table 57, Day 9): 1811.0 mm^3
Median Tumor Volume ([1]; Table 57, Day 12): 2055.4 mm^3
Median Tumor Volume ([2]; Table 56, Day 0): 211.5 mm^3
Median Tumor Volume ([2]; Table 56, Day 2): 367.9 mm^3
Median Tumor Volume ([2]; Table 56, Day 4): 583.7 mm^3
Median Tumor Volume ([2]; Table 56, Day 7): 941.7 mm^3
Median Tumor Volume ([2]; Table 56, Day 9): 1305.2 mm^3
Median Tumor Volume ([2]; Table 56, Day 11): 1484.7 mm^3
Median Tumor Volume ([2]; Table 56, Day 14): 2025.0 mm^3
CC50 [3]: > 127 nM
CC50 [4]: 2.55 nM
CC50 [5]: 3.31 nM

COc1c(C)cc2c(c1O)[C@@H]1[C@@H]3[C@@H]4SC[C@]5(N[C@H](CN)Cc6c5[nH]c5ccccc65)C(=O)OC[C@@H](c5c6c(c(C)c(OC(C)=O)c54)OCO6)N3[C@@H](O)[C@H](C2)N1C [Compound 12-S]
Median Tumor Volume ([6]; Day 0, iv Days 0, 7 and 14, 12-S […]): 128.0 mm^3
Median Tumor Volume ([6]; Day 2, iv Days 0, 7 and 14, 12-S […]): 141.5 mm^3
Median Tumor Volume ([6]; Day 4, iv Days 0, 7 and 14, 12-S […]): 143.7 mm^3
Median Tumor Volume ([6]; Day 7, iv Days 0, 7 and 14, 12-S […]): 183.9 mm^3
Median Tumor Volume ([6]; Day 11, iv Days 0, 7 and 14, 12-S […]): 208.1 mm^3
Median Tumor Volume ([6]; Day 14, iv Days 0, 7 and 14, 12-S […]): 270.7 mm^3
Median Tumor Volume ([6]; Day 16, iv Days 0, 7 and 14, 12-S […]): 286.3 mm^3
Median Tumor Volume ([6]; Day 18, iv Days 0, 7 and 14, 12-S […]): 336.1 mm^3
Median Tumor Volume ([6]; Day 21, iv Days 0, 7 and 14, 12-S […]): 357.1 mm^3
Median Tumor Volume ([6]; Day 23, iv Days 0, 7 and 14, 12-S […]): 400.8 mm^3
Median Tumor Volume ([6]; Day 25, iv Days 0, 7 and 14, 12-S […]): 443.6 mm^3
Median Tumor Volume ([6]; Day 29, iv Days 0, 7 and 14, 12-S […]): 523.4 mm^3
Median Tumor Volume ([6]; Day 32, iv Days 0, 7 and 14, 12-S […]): 652.6 mm^3
Median Tumor Volume ([6]; Day 35, iv Days 0, 7 and 14, 12-S […]): 689.7 mm^3
Median Tumor Volume ([6]; Day 37, iv Days 0, 7 and 14, 12-S […]): 692.2 mm^3
Median Tumor Volume ([6]; Day 39, iv Days 0, 7 and 14, 12-S […]): 726.9 mm^3
Median Tumor Volume ([6]; Day 42, iv Days 0, 7 and 14, 12-S […]): 823.7 mm^3
Median Tumor Volume ([6]; Day 44, iv Days 0, 7 and 14, 12-S […]): 864.2 mm^3
Median Tumor Volume ([6]; Day 46, iv Days 0, 7 and 14, 12-S […]): 1182.8 mm^3
Median Tumor Volume ([6]; Day 49, iv Days 0, 7 and 14, 12-S […]): 1219.2 mm^3
Median Tumor Volume ([6]; Day 51, iv Days 0, 7 and 14, 12-S […]): 1331.9 mm^3
Median Tumor Volume ([6]; Day 56, iv Days 0, 7 and 14, 12-S […]): 1335.2 mm^3
CC50 [3]: > 128 nM
CC50 [7]: > 128 nM

COc1c(C)cc2c(c1O)[C@@H]1[C@@H]3[C@@H]4SC[C@]5(N[C@H](C(=O)O)Cc6c5[nH]c5ccccc65)C(=O)OC[C@@H](c5c6c(c(C)c(OC(C)=O)c54)OCO6)N3[C@@H](C#N)[C@H](C2)N1C [Compound 14-S]
GI50 [3]: 121 nM
CC50 [3]: > 124 nM
IC (TGI) [3]: > 124 nM
GI50 [7]: > 124 nM
CC50 [7]: > 124 nM
IC (TGI) [7]: > 124 nM
GI50 [4]: 54.5 nM
CC50 [4]: > 124 nM
IC (TGI) [4]: 113 nM
GI50 [5]: > 124 nM
CC50 [5]: > 124 nM
IC (TGI) [5]: > 124 nM

COc1ccc2[nH]c3c(c2c1)C[C@H](C(=O)O)N[C@]31CS[C@@H]2c3c(OC(C)=O)c(C)c4c(c3[C@H](COC1=O)N1[C@@H]2[C@H]2c3c(cc(C)c(OC)c3O)C[C@@H]([C@@H]1O)N2C)OCO4 [Compound 29-R]
GI50 [3]: 30.2 nM
CC50 [3]: > 1210 nM
IC (TGI) [3]: 32.6 nM
GI50 [7]: 90.5 nM
CC50 [7]: > 1210 nM
IC (TGI) [7]: 193 nM
GI50 [4]: 16.9 nM
CC50 [4]: 157 nM
IC (TGI) [4]: 27.7 nM
GI50 [5]: 30.2 nM
CC50 [5]: 35 nM
IC (TGI) [5]: 31.4 nM

COc1ccc2[nH]c3c(c2c1)C[C@H](CN)N[C@]31CS[C@@H]2c3c(OC(C)=O)c(C)c4c(c3[C@H](COC1=O)N1[C@@H]2[C@H]2c3c(cc(C)c(OC)c3O)C[C@@H]([C@@H]1C#N)N2C)OCO4 [Compound 26-R]
GI50 [3]: 0.729 nM
CC50 [3]: > 122 nM
IC (TGI) [3]: 1.58 nM
GI50 [7]: 1.94 nM
CC50 [7]: > 122 nM
IC (TGI) [7]: 3.4 nM
GI50 [4]: 1.17 nM
CC50 [4]: 1.46 nM
IC (TGI) [4]: 1.22 nM
GI50 ([5]; PSN1, 72 hours treatment, SRB): 0.972 nM
CC50 [5]: 3.52 nM
IC (TGI) [5]: 1.7 nM
